Source: ChEMBL document CHEMBL1125386, “Small atrial natriuretic peptide analogues: design, synthesis, and structural requirements for guanylate cyclase activation” (J Med Chem, 1992)

Legend:
[1] = Binding affinity towards low-affinity site of Atrial natriuretic peptide receptor 1 of rabbit adrenal membrane; format: tissue-based
[2] = test system: Atrial natriuretic peptide receptor 1 (Oryctolagus cuniculus); test: Binding affinity for low-affinity site Atrial natriuretic peptide receptor 1 of rabbit adrenal membrane; settings: Adrenal gland
[3] = test system: Atrial natriuretic peptide receptor 1 (Oryctolagus cuniculus); test: Binding affinity towards the low-affinity site atrionatriuretic peptide receptor 1 of rabbit adrenal membrane

Structure (SMILES)	KL [1]	other results
CC[C@H](C)[C@@H]1NC(=O)[C@@H](CCCN=C(N)N)NC(=O)CNC(=O)CNC(=O)[C@@H](Cc2ccccc2)NC(=O)[C@@H](C)NC(=O)[C@H](NC(=O)[C@H](CO)NC(=O)[C@@H](N)CO)CSSC[C@H](C(=O)N[C@H](Cc2ccccc2)C(=O)N[C@H](CCCN=C(N)N)C(=O)O)NC(=O)[C@@H]([C@@H](C)CC)NC(=O)[C@H](CC(=O)O)NC(=O)[C@@H](CCCN=C(N)N)NC1=O	7800 nM	
CC[C@H](C)[C@@H]1NC(=O)[C@@H](CCCN=C(N)N)NC(=O)CNC(=O)CNC(=O)[C@@H](Cc2ccccc2)NC(=O)[C@H](NC(=O)[C@H](N)CCCN=C(N)N)CSSC[C@H](C(=O)O)NC(=O)[C@@H](CCCN=C(N)N)NC(=O)[C@H](Cc2ccccc2)NC(=O)[C@@H]([C@@H](C)CC)NC(=O)[C@H](CCCN=C(N)N)NC(=O)[C@@H](CC(C)C)NC1=O		KL [2]: 680 nM
CC[C@H](C)[C@@H]1NC(=O)[C@H](CCCN=C(N)N)NC(=O)[C@@H](CC(=O)O)NC(=O)[C@H]([C@@H](C)CC)NC(=O)[C@@H](CCCN=C(N)N)NC(=O)CNC(=O)CNC(=O)[C@@H](Cc2ccccc2)NC(=O)CNC(=O)[C@@H](NC(=O)[C@H](CO)NC(=O)[C@@H](N)CO)CSSC[C@@H](C(=O)N[C@H](Cc2ccccc2)C(=O)N[C@@H](CCCCN=C(N)N)C(=O)O)NC1=O	320 nM	
CC(C)C[C@@H]1NC(=O)[C@@H](CCCN=C(N)N)NC(=O)CNC(=O)CNC(=O)[C@@H](Cc2ccccc2)NC(=O)[C@@H](C)NC(=O)[C@H](NC(=O)[C@H](CO)NC(=O)[C@@H](N)CO)CSSC[C@H](C(=O)N[C@H](Cc2ccccc2)C(=O)N[C@H](CCCN=C(N)N)C(=O)O)NC(=O)[C@@H](CC(C)C)NC(=O)[C@H](CCCN=C(N)N)NC(=O)[C@@H](CC(=O)O)NC1=O		KL [2]: 680 nM
CC[C@H](C)[C@@H]1NC(=O)[C@@H](CCCN=C(N)N)NC(=O)CNC(=O)CNC(=O)[C@@H](C2CCCCC2)NC(=O)[C@H](NC(=O)[C@H](N)CCCN=C(N)N)CSSC[C@H](C(N)=O)NC(=O)[C@@H](CCCN=C(N)N)NC(=O)[C@@H]2Cc3ccccc3CN2C(=O)[C@@H]([C@@H](C)CC)NC(=O)[C@H](CCCN=C(N)N)NC(=O)[C@@H](CC(=O)O)NC1=O	270 nM	
CC[C@H](C)[C@@H]1NC(=O)[C@@H](CCCN=C(N)N)NC(=O)Cc2ccc(cc2)NC(=O)Cc2ccc(cc2)NC(=O)[C@@H](Cc2ccccc2)NC(=O)C(C)NC(=O)[C@H](NC(=O)[C@H](CO)NC(=O)[C@@H](N)CO)CSSC[C@H](C(=O)N[C@H](Cc2ccccc2)C(=O)N[C@H](CCCN=C(N)N)C(=O)O)NC(=O)[C@@H]([C@@H](C)CC)NC(=O)[C@H](CCCN=C(N)N)NC(=O)[C@@H](CC(=O)O)NC1=O (stereo in doubt)	1400 nM	
CC[C@H](C)[C@@H]1NC(=O)[C@@H](CCCN=C(N)N)NC(=O)Cc2cccc(c2)NC(=O)Cc2cccc(c2)NC(=O)[C@@H](Cc2ccccc2)NC(=O)C(C)NC(=O)[C@H](NC(=O)[C@H](CO)NC(=O)[C@@H](N)CO)CSSC[C@H](C(=O)N[C@H](Cc2ccccc2)C(=O)N[C@H](CCCN=C(N)N)C(=O)O)NC(=O)[C@@H]([C@@H](C)CC)NC(=O)[C@H](CCCN=C(N)N)NC(=O)[C@@H](CC(=O)O)NC1=O (stereo in doubt)	810 nM	
CC[C@H](C)[C@@H]1NC(=O)[C@@H](CCCN=C(N)N)NC(=O)CNC(=O)CNC(=O)[C@@H](Cc2ccccc2)NC(=O)[C@H](NC(=O)[C@H](N)CCCN=C(N)N)CSSC[C@H](C(=O)O)NC(=O)[C@@H](CCCN=C(N)N)NC(=O)[C@H](Cc2ccccc2)NC(=O)[C@@H]([C@@H](C)CC)NC(=O)[C@H](CCCN=C(N)N)NC(=O)[C@@H](CC(=O)O)NC1=O	660 nM	
CC[C@H](C)[C@@H]1NC(=O)[C@@H](CCCN=C(N)N)NC(=O)CNC(=O)CNC(=O)[C@@H](Cc2ccccc2)NC(=O)[C@@H](C)NC(=O)[C@H](NC(=O)[C@H](CO)NC(=O)[C@@H](N)CO)CSSC[C@H](C(=O)N[C@H](Cc2ccccc2)C(=O)N[C@H](CCCN=C(N)N)C(=O)O)NC(=O)[C@@H]([C@@H](C)CC)NC(=O)[C@H](CCCN=C(N)N)NC(=O)[C@@H](CC(N)=O)NC1=O	540 nM	
CC[C@H](C)[C@@H]1NC(=O)[C@@H](CCCN=C(N)N)NC(=O)CNC(=O)CNC(=O)[C@@H](Cc2ccccc2)NC(=O)CNC(=O)[C@H](NC(=O)[C@H](CO)NC(=O)[C@@H](N)CO)CSSC[C@H](C(=O)N[C@H](Cc2ccccc2)C(=O)N[C@H](CCCN=C(N)N)C(=O)O)NC(=O)[C@@H]([C@@H](C)CC)NC(=O)[C@H](CCCN=C(N)N)NC(=O)[C@@H](CC(=O)OC)NC1=O	1400 nM	
CC[C@H](C)[C@@H]1NC(=O)[C@@H](CCCN=C(N)N)NC(=O)CNC(=O)CNC(=O)[C@@H](C2CCCCC2)NC(=O)[C@H](NC(=O)[C@H](N)Cc2c[nH]cn2)CSSC[C@H](C(N)=O)NC(=O)[C@@H](CCCN=C(N)N)NC(=O)[C@H](Cc2ccccc2)NC(=O)[C@@H]([C@@H](C)CC)NC(=O)[C@H](CCCN=C(N)N)NC(=O)[C@@H](CC(=O)O)NC1=O	190 nM	
CC[C@H](C)[C@@H]1NC(=O)[C@@H](CCCN=C(N)N)NC(=O)CNC(=O)CNC(=O)[C@@H](Cc2ccc(O)cc2)NC(=O)C(C)NC(=O)[C@H](NC(=O)[C@H](CO)NC(=O)[C@@H](N)CO)CSSC[C@H](C(=O)N[C@H](Cc2ccccc2)C(=O)N[C@H](CCCN=C(N)N)C(=O)O)NC(=O)[C@@H]([C@@H](C)CC)NC(=O)[C@H](CCCN=C(N)N)NC(=O)[C@@H](CC(=O)O)NC1=O (stereo in doubt)	10000 nM	
CC[C@H](C)[C@@H]1NC(=O)[C@H](CCCN=C(N)N)NC(=O)[C@@H](CC(=O)O)NC(=O)[C@H]([C@@H](C)CC)NC(=O)[C@@H](CCCN=C(N)N)NC(=O)CNC(=O)CNC(=O)[C@@H](Cc2ccccc2)NC(=O)CNC(=O)[C@@H](NC(=O)[C@H](CO)NC(=O)[C@@H](N)CO)CSSC[C@@H](C(=O)N[C@H](Cc2ccccc2)C(=O)N[C@@H](CCCCN)C(=O)O)NC1=O	5900 nM	
CC[C@H](C)[C@@H]1NC(=O)[C@@H](CCCN=C(N)N)NC(=O)CNC(=O)CNC(=O)[C@@H](Cc2ccccc2)NC(=O)CNC(=O)[C@H](NC(=O)[C@H](CO)NC(=O)[C@@H](N)CO)CSSC[C@H](C(=O)N[C@H](Cc2ccccc2)C(=O)NCC(=O)O)NC(=O)[C@@H]([C@@H](C)CC)NC(=O)[C@H](CCCN=C(N)N)NC(=O)[C@@H](CC(=O)O)NC1=O	3100 nM	
CC[C@H](C)[C@@H]1NC(=O)[C@@H](CCCN=C(N)N)NC(=O)CNC(=O)CNC(=O)[C@@H](Cc2ccc(OC)c(OC)c2)NC(=O)C(C)NC(=O)[C@H](NC(=O)[C@H](CO)NC(=O)[C@@H](N)CO)CSSC[C@H](C(=O)N[C@H](Cc2ccccc2)C(=O)N[C@H](CCCN=C(N)N)C(=O)O)NC(=O)[C@@H]([C@@H](C)CC)NC(=O)[C@H](CCCN=C(N)N)NC(=O)[C@@H](CC(=O)O)NC1=O (stereo in doubt)	13000 nM	
CC[C@H](C)[C@@H]1NC(=O)[C@@H](CCCN=C(N)N)NC(=O)CNC(=O)CNC(=O)[C@@H](Cc2ccccc2)NC(=O)CNC(=O)[C@H](NC(=O)[C@H](CO)NC(=O)[C@@H](N)CO)CSSC[C@H](C(=O)N[C@@H](Cc2ccccc2)C(=O)N[C@H](CCCN=C(N)N)C(=O)O)NC(=O)[C@@H]([C@@H](C)CC)NC(=O)[C@H](CCCN=C(N)N)NC(=O)[C@@H](CC(=O)O)NC1=O	780 nM	
CC[C@H](C)[C@@H]1NC(=O)[C@@H](CCCN=C(N)N)NC(=O)CNC(=O)CNC(=O)[C@@H](Cc2ccccc2)NC(=O)[C@@H](C)NC(=O)[C@H](NC(=O)[C@H](CO)NC(=O)[C@@H](N)CO)CSSC[C@H](C(=O)N[C@H](Cc2ccccc2)C(=O)N[C@H](CCCN=C(N)N)C(=O)O)NC(=O)[C@@H]([C@@H](C)CC)NC(=O)[C@H](CCCN=C(N)N)NC(=O)[C@@H](C)NC1=O	1000 nM	
CC[C@H](C)[C@@H]1NC(=O)[C@@H](CCCN=C(N)N)NC(=O)CNC(=O)CNC(=O)[C@@H](Cc2ccccc2)NC(=O)CNC(=O)[C@H](NC(=O)[C@H](CO)NC(=O)[C@@H](N)CO)CSSC[C@H](C(=O)N[C@H](Cc2ccccc2)C(=O)N[C@@H](CCCN=C(N)N)C(=O)O)NC(=O)[C@@H]([C@@H](C)CC)NC(=O)[C@H](CCCN=C(N)N)NC(=O)[C@@H](CC(=O)O)NC1=O	620 nM	
CC[C@H](C)[C@@H]1NC(=O)[C@@H](CCCN=C(N)N)NC(=O)CNC(=O)CNC(=O)[C@@H](Cc2ccccc2)NC(=O)[C@@H](C)NC(=O)[C@H](NC(=O)[C@H](CO)NC(=O)[C@@H](N)CO)CSSC[C@H](C(=O)N[C@H](Cc2ccccc2)C(=O)N[C@H](CCCN=C(N)N)C(=O)O)NC(=O)[C@@H]([C@@H](C)CC)NC(=O)[C@H](CCCN=C(N)N)NC(=O)[C@@H](CO)NC1=O	510 nM	
CC[C@H](C)[C@@H]1NC(=O)[C@@H](CCCN=C(N)N)NC(=O)CNC(=O)CNC(=O)[C@@H](C2CCCCC2)NC(=O)CCSSC[C@H](C(N)=O)NC(=O)[C@@H](CCCN=C(N)N)NC(=O)[C@H](Cc2ccccc2)NC(=O)[C@@H]([C@@H](C)CC)NC(=O)[C@H](CCCN=C(N)N)NC(=O)[C@@H](CC(=O)O)NC1=O	300 nM	
CC[C@H](C)[C@@H]1NC(=O)[C@@H](CCCN=C(N)N)NC(=O)CNC(=O)CNC(=O)[C@@H](Cc2ccccc2)NC(=O)[C@@H](C)NC(=O)[C@H](NC(=O)[C@H](CO)NC(=O)[C@@H](N)CO)CSSC[C@H](C(=O)N[C@H](Cc2ccccc2)C(=O)N[C@H](CCCN=C(N)N)C(=O)O)NC(=O)[C@@H]([C@@H](C)CC)NC(=O)[C@H](CCCN=C(N)N)NC(=O)CNC1=O	740 nM	
CC[C@H](C)[C@@H]1NC(=O)[C@H](CCCN=C(N)N)NC(=O)[C@@H](CC(=O)O)NC(=O)[C@H]([C@@H](C)CC)NC(=O)[C@@H](CCCN=C(N)N)NC(=O)CNC(=O)CNC(=O)[C@@H](Cc2ccccc2)NC(=O)C(C)NC(=O)[C@@H](NC(=O)[C@H](CO)NC(=O)[C@@H](N)CO)CSSC[C@@H](C(=O)N2C[C@@H](C(=O)N[C@H](CCCN=C(N)N)C(=O)O)Cc3ccccc32)NC1=O (stereo in doubt)		KL [3]: 540 nM
CC[C@H](C)[C@@H]1NC(=O)[C@@H](CCCN=C(N)N)NC(=O)CNC(=O)CNC(=O)[C@@H](Cc2ccccc2)N(C)C(=O)C(C)NC(=O)[C@H](NC(=O)[C@H](CO)NC(=O)[C@@H](N)CO)CSSC[C@H](C(=O)N[C@H](Cc2ccccc2)C(=O)N[C@H](CCCN=C(N)N)C(=O)O)NC(=O)[C@@H]([C@@H](C)CC)NC(=O)[C@H](CCCN=C(N)N)NC(=O)[C@@H](CC(=O)O)NC1=O (stereo in doubt)	290 nM	
